“Also recorded” adds a separate entry of the source. Where two headings read alike, the source gives them in different places.

Here are results for 34 molecules from patent US4666842A, “Novel aldehyde oxidase and process for producing same” (Kyowa Hakko Kogyo Co., Inc., priority 1982, dated 1987).

In data set [1] the test system is aldehyde oxidase (the present enzyme). Put plainly: Substrate specificity of the present aldehyde oxidase. The class given is biochemical, Pseudomonas sp No. 6233. As to conditions: for Relative activity (substrate specificity): purified enzyme of Example 1, formaldehyde = 100%. Here is the method:
(§1) The amount of enzyme for decomposing 1 μmol of acetaldehyde in the presence of oxygen at 37° C. in one minute is designated as one unit. Specific activity is expressed by unit per mg of protein. The amount of enzyme protein is measured according to the method of O. H. Lowry, N. J. Rosebrough, A. L. Farr and R. J. Randall, J. Biol. Chem., 193 265(1951) using a copper-Folin reagent.
(§2) The enzyme activity can be measured by allowing the hydrogen peroxide formed from acetaldehyde by the action of the enzyme to react with 4-aminoantipyrine and phenol in the presence of a peroxidase and by quantitatively determining the amount of quinoneimine formed. The reaction is illustrated by the following equations (1) and (2): [drawing 1]
(§3) The above reagents (1)-(6) are put into a test tube, thoroughly shaken, and left standing at 37° C. for 5 minutes. Then, the enzyme solution (7) is added to the test tube to make up a total volume of 3 ml, and the test tube is shaken at 37° C. for 10 minutes to complete the reaction. As a control, the procedure is repeated using water in place of the substrate. The absorbancies of the reaction solution and control at 500 nm are measured, and the difference between the absorbancies is obtained as ΔO.D.
(§4) One unit of aldehyde oxidase is the amount of enzyme for decomposing 1 μmole of acetaldehyde at 37° C. in one minute. The absorbancy coefficient of 1 mM quinoneimine is reported in Clin. Chem., 20, 470(1974) to be 5.33. Therefore, if the absorbancy (ΔO.D.) of 3 ml of the reaction solution at 500 nm as obtained in the procedure (C) is designation as a, titer (A) per ml of the enzyme solution can be given as follows: [formula]
(§5) II. Physical and chemical properties of the aldehyde oxidase of the present invention are described below (hereinafter, the aldehyde oxidase will be sometimes referred to merely as "the present enzyme"). A purified enzyme prepared in Example 1 is used as the aldehyde oxidase.
For example, formaldehyde, acetaldehyde and glyceraldehyde are oxidized to formic acid, acetic acid and glyceric acid respectively. The present enzyme acts upon a wide range of aldehydes, for example, saturated aliphatic aldehydes such as formaldehyde, acetaldehyde, propionaldehyde, n-valeraldehyde, n-hexylaldehyde, heptylaldehyde, etc.; unsaturated aliphatic aldehydes such as crotonaldehyde, citral, etc.; aromatic aldehydes such as benzaldehyde, etc.; D- or L-glyceraldehyde, etc.
In the following Table 1, the relative activity of the present enzyme upon various substrates is set forth.

The test system is the same in data set [2]. Format: biochemical, Pseudomonas sp No. 6233. How it is done: as §1, §2, §3, §4, §5
The present enzyme is inhibited by mercuric chloride and p-chloromercuriphenylsulfonic acid, and thus it appears that an SH group takes part in the reaction.

Data set [3] concerns the target T1, aldehyde oxidase of animal origin (Oryctolagus cuniculus, UniProt P80456).
T1 sequence (P80456 1-1334): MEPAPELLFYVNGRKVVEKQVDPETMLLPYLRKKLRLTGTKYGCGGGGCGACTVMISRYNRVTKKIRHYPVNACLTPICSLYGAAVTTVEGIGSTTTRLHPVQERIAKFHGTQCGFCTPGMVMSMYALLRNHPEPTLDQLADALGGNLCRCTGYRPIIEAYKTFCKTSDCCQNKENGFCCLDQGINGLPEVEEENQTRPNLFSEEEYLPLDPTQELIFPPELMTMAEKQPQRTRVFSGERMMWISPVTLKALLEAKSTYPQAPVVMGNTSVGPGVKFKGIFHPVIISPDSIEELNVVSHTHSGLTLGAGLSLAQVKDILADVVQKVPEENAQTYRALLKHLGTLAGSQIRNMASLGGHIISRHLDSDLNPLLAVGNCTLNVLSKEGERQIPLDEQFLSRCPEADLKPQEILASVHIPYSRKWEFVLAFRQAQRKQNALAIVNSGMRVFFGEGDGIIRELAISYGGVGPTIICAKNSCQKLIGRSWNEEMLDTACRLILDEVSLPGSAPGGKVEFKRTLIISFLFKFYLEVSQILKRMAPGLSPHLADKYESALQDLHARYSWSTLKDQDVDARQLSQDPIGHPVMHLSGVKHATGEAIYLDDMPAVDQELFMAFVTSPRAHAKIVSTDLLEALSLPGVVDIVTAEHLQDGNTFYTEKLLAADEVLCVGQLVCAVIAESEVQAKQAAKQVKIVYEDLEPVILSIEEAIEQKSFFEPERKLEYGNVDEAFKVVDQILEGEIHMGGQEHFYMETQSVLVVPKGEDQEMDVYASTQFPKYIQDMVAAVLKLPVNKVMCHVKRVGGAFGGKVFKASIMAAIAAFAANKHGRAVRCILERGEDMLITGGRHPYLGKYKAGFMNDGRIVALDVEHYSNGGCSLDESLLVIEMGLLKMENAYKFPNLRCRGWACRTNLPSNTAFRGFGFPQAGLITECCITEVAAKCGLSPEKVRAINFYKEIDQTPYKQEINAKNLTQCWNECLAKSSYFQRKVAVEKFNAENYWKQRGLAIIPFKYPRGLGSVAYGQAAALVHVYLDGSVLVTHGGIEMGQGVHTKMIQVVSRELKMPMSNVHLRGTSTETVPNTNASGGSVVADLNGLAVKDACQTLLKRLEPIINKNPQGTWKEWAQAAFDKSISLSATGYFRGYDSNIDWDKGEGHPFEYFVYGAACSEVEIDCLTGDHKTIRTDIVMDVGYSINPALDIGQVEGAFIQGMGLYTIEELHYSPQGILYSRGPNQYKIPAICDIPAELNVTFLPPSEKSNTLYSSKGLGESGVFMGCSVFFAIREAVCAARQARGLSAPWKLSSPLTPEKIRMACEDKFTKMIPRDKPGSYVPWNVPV
As to conditions: known enzyme, literature; cited from earlier work.

Data set [4] addresses T1, aldehyde oxidase of animal origin. Format: biochemical. The text has this:
*aldehyde oxidase of animal origin for comparison purposes.

Where [5] appears, read: concentration 0.1 mM, none = 100.

`CC=O` [Acetaldehyde]: in data set [1], the “action of the present enzyme upon the substrate” value is on record as “acts upon” and the “Relative activity (substrate specificity)” value was 266%.

As for `[Ba+2].[Cl-].[Cl-]` [BaCl2], in data set [2] (setting [5]), the “Relative activity (%)” value is 87%.

With `O=Cc1ccccc1` [Benzaldehyde], in data set [1], the “action of the present enzyme upon the substrate” value was “acts upon” and the “Relative activity (substrate specificity)” value worked out at 93%.

In the case of `CC(=O)O` [Ca(CH3 COO)2], the “Relative activity (%)” value in data set [2] (1000 µM) is 109%.

With `CC(C)=CCCC(C)=CC=O` [Citral], in data set [1], the “action of the present enzyme upon the substrate” value was “acts upon” and the “Relative activity (substrate specificity)” value amounted to 291%.

`[Cl-].[Cl-].[Co+2]` [CoCl2]: the “Relative activity (%)” value in data set [2] (concentration 1 mM, none = 100) was determined as 104%.

With `C/C=C/C=O` [Crotonaldehyde], in data set [1], the “action of the present enzyme upon the substrate” value is “acts upon” and the “Relative activity (substrate specificity)” value is given as 260%.

`O=S(=O)([O-])[O-].[Cu+2]` [CuSO4]: the “Relative activity (%)” value in data set [2] (setting [5]) turned out to be 20%.

Turning to `O=C[C@H](O)CO` [D-Glyceraldehyde], in data set [1], the “action of the present enzyme upon the substrate” value is listed as “acts upon” and the “Relative activity (substrate specificity)” value is reported as 270%.

As for `CCO` [Ethanol], in data set [1], the “action of the present enzyme upon the substrate” value is given as “does not act upon” and the “Relative activity (substrate specificity)” value was 0%.

Turning to `O=S(=O)([O-])[O-].[Fe+2]` [FeSO4], the “Relative activity (%)” value in data set [2] (setting [5]) is given as 100%.

With `C=O` [Formaldehyde], in data set [1], the “action of the present enzyme upon the substrate” value is on record as “acts upon” and the “Relative activity (substrate specificity)” value worked out at 100%.

For the molecule `CCCCCCC=O` [Heptylaldehyde], in data set [1], the “action of the present enzyme upon the substrate” value is “acts upon” and the “Relative activity (substrate specificity)” value turned out to be 387%.

Take `[Cl][Hg][Cl]` [HgCl2, mercuric chloride]: in data set [2] (setting [5]), the “Relative activity (%)” value came to 0%. In addition, in data set [2], the “inhibition of the present enzyme” value is “inhibited”.

For the molecule `NO` [Hydroxylamine], in data set [2] (concentration 1 mM, none = 100), the “Relative activity (%)” value was 110%.

Consider `O=c1[nH]cnc2nc[nH]c12` [Hypoxanthine], for which the “action of aldehyde oxidase of animal origin upon the substrate” value in data set [3] is recorded as “acts upon”. In data set [1], the “action of the present enzyme upon the substrate” value is listed as “does not have any catalytic action” and the “Relative activity (substrate specificity)” value is listed as 0%.

Consider `O=C[C@@H](O)CO` [L-Glyceraldehyde], for which, in data set [1], the “action of the present enzyme upon the substrate” value was “acts upon” and the “Relative activity (substrate specificity)” value stood at 23%.

Take `CO` [Methanol]: in data set [1], the “action of the present enzyme upon the substrate” value is “does not act upon” and the “Relative activity (substrate specificity)” value is reported as 0%.

As for `O=S(=O)([O-])[O-].[Mg+2]` [MgSO4], the “Relative activity (%)” value in data set [2] (concentration 1 mM, none = 100) turned out to be 97%.

As to `[Cl][Mn][Cl]` [MnCl2], the “Relative activity (%)” value in data set [2] (concentration 1 mM, none = 100) turned out to be 106%.

With `C[n+]1cccc(C(N)=O)c1` [N'--Methylnicotinamide], in data set [1], the “action of the present enzyme upon the substrate” value is listed as “does not act upon” and the “Relative activity (substrate specificity)” value worked out at 0%.

As for `c1cnc2c(c1)ccc1cccnc12` [O--Phenanthroline], the “Relative activity (%)” value in data set [2] (concentration 1 mM, none = 100) is listed as 103%.

Turning to `CCC=O` [Propionaldehyde], in data set [1], the “action of the present enzyme upon the substrate” value was “acts upon” and the “Relative activity (substrate specificity)” value came to 285%.

For `c1ncc2[nH]cnc2n1` [Purine], the “action of aldehyde oxidase of animal origin upon the substrate” value in data set [3] was “acts upon”. Also, in data set [1], the “action of the present enzyme upon the substrate” value is “does not have any catalytic action” and the “Relative activity (substrate specificity)” value turned out to be 0%.

With `C=C[C@H]1C[N@@]2CC[C@H]1C[C@H]2[C@H](O)c1ccnc2ccc(OC)cc12` [Quinine], in data set [1], the “action of the present enzyme upon the substrate” value is listed as “does not have any catalytic action; also recorded: does not act upon” and the “Relative activity (substrate specificity)” value was determined as 0%.

As to `c1ccc2ncccc2c1` [Quinoline], in data set [1], the “action of the present enzyme upon the substrate” value was “does not act upon” and the “Relative activity (substrate specificity)” value worked out at 0%.

With `ON=Cc1ccccc1O` [Salicylaldoxime], the “Relative activity (%)” value in data set [2] (1000 µM) is 91%.

On to `[Cl-].[Cl-].[Sr+2]` [SrCl2], for which the “Relative activity (%)” value in data set [2] (concentration 1 mM, none = 100) is reported as 94%.

`[Cl-].[Cl-].[Zn+2]` [ZnCl2]: in data set [2] (concentration 1 mM, none = 100), the “Relative activity (%)” value is on record as 103%.

`CCCCCC=O` [n-Hexylaldehyde]: in data set [1], the “action of the present enzyme upon the substrate” value was “acts upon” and the “Relative activity (substrate specificity)” value was 390%.

For the molecule `CCCCC=O` [n-Valeraldehyde], in data set [1], the “action of the present enzyme upon the substrate” value was “acts upon” and the “Relative activity (substrate specificity)” value was 367%.

`O=S(=O)(O)c1cc[c]([Hg][Cl])cc1` [p-Chloromercuriphenylsulfonic acid, p-chloromercuriphenylsulfonic acid]: the “Relative activity (%)” value in data set [2] (setting [5]) is reported as 0%. For the same molecule, the “inhibition of the present enzyme” value in data set [2] is reported as “inhibited”.

Regarding `c1ccc(-c2ccccn2)nc1` [α, α'-Dipyridyl], the “Relative activity (%)” value in data set [2] (concentration 1 mM, none = 100) is recorded as 85%.

Regarding Antimycin A, the “Relative activity (%), aldehyde oxidase of animal origin” value in data set [4] (concentration 2 × 10^-3 mM, value in brackets, for comparison, 2 µM) is on record as 38%. Besides, the “inhibition of the known aldehyde oxidase of animal origin” value in data set [4] (known aldehyde oxidase) is “strongly inhibited”. Besides, in data set [2] (concentration 2 × 10^-3 mM, none = 100, 2 µM), the “Relative activity (%)” value was determined as 94%. Besides, the “inhibition of the present enzyme” value in data set [2] was “not strongly inhibited”.
